Measured values taken from patent publication US20250313574A1, “SIALIC ACID DERIVATIVES AND METHODS OF USING SAME” (EISAI R&D MANAGEMENT CO., LTD., priority 2022, published 2025).

Tests used:
[1] = biological target: Recombinant human CD33 protein (Homo sapiens (Human), UniProt P20138); experiment: CD33 competitive binding assay for HTS drug screen (fluorescent multivalent sialic acid probe)
Method in brief: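 Inhibition was read as reduced retention of a fluorescent multivalent sialic acid complex (final 5 μM neutravidin, 15 μM A-375, 5 μM biotin-4-FITC) on plate-immobilized human CD33. Compound was added first, the probe followed for 30 min at room temperature in PBS with 0.2% Tween-20 and 0.5% BSA, and FITC was measured after a wash.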

[2] = biological target: Recombinant Human Siglec-3/CD33 protein (His-CD33) (Homo sapiens (Human), UniProt P20138); experiment: Differential scanning fluorimetry (DSF) thermal shift assay; type: binding; conditions: thermal melt shift of 0.5 μM CD33 protein with 50 μM compound
Chain of Recombinant Human Siglec-3/CD33 protein (His-CD33) (P20138 18-259): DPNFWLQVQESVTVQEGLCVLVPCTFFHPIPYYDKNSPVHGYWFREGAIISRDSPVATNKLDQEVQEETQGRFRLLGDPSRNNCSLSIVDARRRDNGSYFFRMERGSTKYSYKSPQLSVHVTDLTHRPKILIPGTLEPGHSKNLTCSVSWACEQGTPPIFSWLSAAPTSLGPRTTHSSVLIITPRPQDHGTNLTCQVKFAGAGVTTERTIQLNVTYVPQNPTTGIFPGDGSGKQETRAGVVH
Method: In the DSF assay, as the temperature increases, the protein gets gradually unfolded, exposing hydrophobic regions in which a fluorescent dye binds causing the fluorescence signal to increase. The midpoint of the unfolding transitions is called the thermal melt (Tm) or denaturation temperature and the Tm was defined as the peak apex in the derivative curve. Here, the Tm temperature of CD33 in the presence and absence of A-001 at a concentration of 50 μM was examined.
Recombinant Human Siglec-3/CD33 protein was purchased from Acros (catalog no. CD3-H5226) and reagents used in this study are shown in the Table 1 below.
Lyophilized CD33 protein was received in 1 mg aliquots from Acros. The protein was diluted with 2.5 mL of sterile water to a concentration of 400 μg/mL (14.5 μM), aliquoted into 138 μL aliquots and stored as at −20° C. On the day of analysis, the protein was thawed and […] solution was diluted to […] using buffer containing 133 mM NaCl, 133 mM phosphate buffered solution and 13.9× Sypro Orange dye in water in a quantity to cover the amount of samples tested on the day of the analysis.
200 μM stock solutions of A-001 containing 0.2% DMSO in water was supplied by compound management in a 384-well plate format.
Sample matrix were prepared by adding 7.5 μL of the protein buffer stock solution followed by addition of 2.5 μL of the 200 μM compound solutions in 384-well PCR plates to give a final volume of 10 μL per well consisting of 0.5 μM CD33 protein, 100 mM phosphate buffered solution pH 7.4, 100 mM NaCl, 10× SYPRO orange dye and 50 μM compound concentration (final DMSO concentration ˜0.2%). Using the Applied Biosystems® Protein Thermal Shift software (algorithm version 1.3.), the denaturation temperature or thermal melt (Tm) of the unbound and ligand bound CD33 protein was automatically assigned and the difference in thermal melt (ΔTm D) was calculated using the derivative curve by the Protein Thermal Shift software.
Recombinant human CD33 protein (0.5 μM) was incubated under buffered conditions in the presence of SYPRO orange dye, a temperature gradient was applied and a thermogram was produced by monitoring the fluorescence. The Tm was defined as the peak apex in the derivative curve in the study. […] Addition of […] of A-001 (Blue lines) to the CD33 protein induced significant Tm increases (ΔTm D) of 12.2±0.7° C.

Chain of Recombinant human CD33 protein (P20138 18-259): as above

EC50 [1] | DSF (dTmD) [2] | SMILES
13 nM | 13.2 | CC(=O)N[C@H]1[C@H]([C@H](O)[C@H](O)CNC(=O)c2cc(C)c(O)c(C)c2)O[C@@](CCN2CCOC[C@@]23CCN(C(=O)N[C@@H](C)c2ccccc2)C3)(C(=O)O)C[C@@H]1O [A-043]
19 nM | 11.5 | CC(=O)N[C@H]1[C@H]([C@H](O)[C@H](O)CNC(=O)c2cc(C)c(O)c(C)c2)O[C@@](CCN2CCOC[C@@]23CCN(C(=O)NC(C)C(F)(F)F)C3)(C(=O)O)C[C@@H]1O (stereo partly shown) [A-044]
19 nM | 12.6 | CC(=O)N[C@H]1[C@H]([C@H](O)[C@H](O)CNC(=O)c2cc(C)c(O)c(C)c2)O[C@@](CCN2CCOC[C@@]23CCN(C(=O)NC2CCCCC2)C3)(C(=O)O)C[C@@H]1O [A-045]
22 nM | 12.9 | CC(=O)N[C@H]1[C@H]([C@H](O)[C@H](O)CNC(=O)c2cc(C)c(O)c(C)c2)O[C@@](CCN2CCOC[C@@]23CCN(C(=O)N[C@H](C)c2ccccc2)C3)(C(=O)O)C[C@@H]1O [A-047]
24 nM | 12.5 | CC(=O)N[C@H]1[C@H]([C@H](O)[C@H](O)CNC(=O)c2cc(C)c(O)c(C)c2)O[C@@](CCN2CCOC[C@@]23CCN(C(=O)NC(C)C)C3)(C(=O)O)C[C@@H]1O [A-048]
41 nM | 13.5 | CC(=O)N[C@H]1[C@H]([C@H](O)[C@H](O)CNC(=O)c2cc(C)c(O)c(C)c2)O[C@@](CCN2CCOC[C@@]23CCN(C(=O)NC24CC5CC(CC(C5)C2)C4)C3)(C(=O)O)C[C@@H]1O [A-049]
64 nM | 10.8 | CC(=O)N[C@H]1[C@H]([C@H](O)[C@H](O)CNC(=O)c2cc(C)c(O)c(C)c2)O[C@@](CCN2CCOC[C@@]23CCN(C(=O)NC2CCC(F)(F)CC2)C3)(C(=O)O)C[C@@H]1O [A-051]
66 nM | 9.9 | CC(=O)N[C@H]1[C@H]([C@H](O)[C@H](O)CNC(=O)c2cc(C)c(O)c(C)c2)O[C@@](CCN2CCOC[C@@]23CCN(C(=S)NC2CCCCC2)C3)(C(=O)O)C[C@@H]1O [A-052]
147 nM | 9.2 | CC(=O)N[C@H]1[C@H]([C@H](O)[C@H](O)CNC(=O)c2cc(C)c(O)c(C)c2)O[C@@](CCN2CCOC[C@@]23CCN(C(=O)Nc2ccc(C)cc2)C3)(C(=O)O)C[C@@H]1O [A-053]
265 nM | 9.7 | CC(=O)N[C@H]1[C@H]([C@H](O)[C@H](O)CNC(=O)c2cc(C)c(O)c(C)c2)O[C@@](CCN2CCOC[C@@]23CCN(C(=O)NC2(c4ccc(F)cc4)CCCC2)C3)(C(=O)O)C[C@@H]1O [A-057]
1380 nM | 5.0 | CC(=O)N[C@H]1[C@H]([C@H](O)[C@H](O)CNC(=O)c2cc(C)c(O)c(C)c2)O[C@@](CCN2CCOC[C@@]23CCN(C(=S)NC2CC2)C3)(C(=O)O)C[C@@H]1O [A-058]
60 nM | 9.3 | CC(=O)N[C@H]1[C@H]([C@H](O)[C@H](O)CNC(=O)c2cc(C)c(O)c(C)c2)O[C@@](CCN2CCOC[C@@]23CCN(C(=O)N(C)c2ccccc2)C3)(C(=O)O)C[C@@H]1O [A-059]
65 nM | 11.2 | CC(=O)N[C@H]1[C@H]([C@H](O)[C@H](O)CNC(=O)c2cc(C)c(O)c(C)c2)O[C@@](CCN2CCOC[C@@]23CCN(C(=O)C2CCCC2)C3)(C(=O)O)C[C@@H]1O [A-060]
235 nM | 7.5 | CC(=O)N[C@H]1[C@H]([C@H](O)[C@H](O)CNC(=O)c2cc(C)c(O)c(C)c2)O[C@@](CCN2CCOC[C@@]23CCN(C(=O)N(C)C(C)C)C3)(C(=O)O)C[C@@H]1O [A-061]
833 nM | 7.2 | CC(=O)N[C@H]1[C@H]([C@H](O)[C@H](O)CNC(=O)c2cc(C)c(O)c(C)c2)O[C@@](CCN2CCOC[C@@]23CCN(C(=O)N2CCCC2)C3)(C(=O)O)C[C@@H]1O [A-062]
323 nM | 6.3 | CC(=O)N[C@H]1[C@H]([C@H](O)[C@H](O)CNC(=O)c2cc(C)c(O)c(C)c2)O[C@@](CCN2CCOC[C@@]23CCN(C(=O)N(C)Cc2ccccc2)C3)(C(=O)O)C[C@@H]1O [A-063]

EC50 [1] | DSF (dTmD) [2] | SMILES
3500 nM | 3.5 | CC(=O)N[C@H]1[C@H]([C@H](O)[C@H](O)CNC(=O)c2cc(C)c(O)c(C)c2)O[C@@](CCN2CCOC[C@@]23CCN(C(=O)N(C)C)C3)(C(=O)O)C[C@@H]1O [A-064]
739 nM | 6.1 | CC(=O)N[C@H]1[C@H]([C@H](O)[C@H](O)CNC(=O)c2cc(C)c(O)c(C)c2)O[C@@](CCN2CCOC[C@@]23CCN(C(=O)N2CCC(F)(F)CC2)C3)(C(=O)O)C[C@@H]1O [A-065]
156 nM | 8.4 | CCN(CC)C(=O)N1CC[C@@]2(COCCN2CC[C@]2(C(=O)O)C[C@H](O)[C@@H](NC(C)=O)[C@H]([C@H](O)[C@H](O)CNC(=O)c3cc(C)c(O)c(C)c3)O2)C1 [A-066]
123 nM | 8.3 | CC(=O)N[C@H]1[C@H]([C@H](O)[C@H](O)CNC(=O)c2cc(C)c(O)c(C)c2)O[C@@](CCN2CCOC[C@@]23CCN(C(=O)C2CC4(C2)CC(F)(F)C4)C3)(C(=O)O)C[C@@H]1O [A-069]
31 nM | 12.0 | CC(=O)N[C@H]1[C@H]([C@H](O)[C@H](O)CNC(=O)c2cc(C)c(O)c(C)c2)O[C@@](CCN2CCOC[C@@]23CCN(C(=O)C2CCCCC2(F)F)C3)(C(=O)O)C[C@@H]1O (stereo partly shown) [A-070]
41 nM | 11.0 | CC(=O)N[C@H]1[C@H]([C@H](O)[C@H](O)CNC(=O)c2cc(C)c(O)c(C)c2)O[C@@](CCN2CCOC[C@@]23CCN(C(=O)C2(C)CCCCC2)C3)(C(=O)O)C[C@@H]1O [A-071]
115 nM | 9.4 | CC(=O)N[C@H]1[C@H]([C@H](O)[C@H](O)CNC(=O)c2cc(C)c(O)c(C)c2)O[C@@](CCN2CCOC[C@@]23CCN(C(=O)C=C(C)C)C3)(C(=O)O)C[C@@H]1O [A-078]
152 nM | 9.1 | CC(=O)N[C@H]1[C@H]([C@H](O)[C@H](O)CNC(=O)c2cc(C)c(O)c(C)c2)O[C@@](CCN2CCOC[C@@]23CCN(C(=O)NCc2ccccc2)C3)(C(=O)O)C[C@@H]1O [A-079]
68 nM | 10.2 | CC(=O)N[C@H]1[C@H]([C@H](O)[C@H](O)CNC(=O)c2cc(C)c(O)c(C)c2)O[C@@](CCN2CCOC[C@@]23CCN(C(=O)C2CC(C)(C)C2)C3)(C(=O)O)C[C@@H]1O [A-080]
454 nM | 7.6 | CC(=O)N[C@H]1[C@H]([C@H](O)[C@H](O)CNC(=O)c2cc(C)c(O)c(C)c2)O[C@@](CCN2CCOC[C@@]23CCN(C(=O)C2CC2)C3)(C(=O)O)C[C@@H]1O [A-096]
430 nM | 8.25 | CC(=O)N[C@H]1[C@H]([C@H](O)[C@H](O)CNC(=O)c2cc(C)c(O)c(C)c2)O[C@@](CCN2CCOC[C@@]23CCN(C(=O)C(C)(C)C)C3)(C(=O)O)C[C@@H]1O [A-097]
685 nM | 6.9 | CC(=O)N[C@H]1[C@H]([C@H](O)[C@H](O)CNC(=O)c2cc(C)c(O)c(C)c2)O[C@@](CCN2CCOC[C@@]23CCN(C(=O)C2(c4ccccc4)CC2)C3)(C(=O)O)C[C@@H]1O [A-098]
342 nM | 7.3 | CC(=O)N[C@H]1[C@H]([C@H](O)[C@H](O)CNC(=O)c2cc(C)c(O)c(C)c2)O[C@@](CCN2CCOC[C@@]23CCN(C(=O)c2ccc(C)cc2)C3)(C(=O)O)C[C@@H]1O [A-099]
2340 nM | 5.6 | CC(=O)N[C@H]1[C@H]([C@H](O)[C@H](O)CNC(=O)c2cc(C)c(O)c(C)c2)O[C@@](CCN2CCOC[C@@]23CCN(C(=O)C2(C)COC2)C3)(C(=O)O)C[C@@H]1O [A-100]
921 nM | 7.4 | CC(=O)N[C@H]1[C@H]([C@H](O)[C@H](O)CNC(=O)c2cc(C)c(O)c(C)c2)O[C@@](CCN2CCOC[C@@]23CCN(C(=O)c2ccccc2)C3)(C(=O)O)C[C@@H]1O [A-101]
397 nM | 7.5 | CC(=O)N[C@H]1[C@H]([C@H](O)[C@H](O)CNC(=O)c2cc(C)c(O)c(C)c2)O[C@@](CCN2CCOC[C@@]23CCN(C(=O)C2(C(F)(F)F)CCCCC2)C3)(C(=O)O)C[C@@H]1O [A-102]
